# From patent US20260217863A1, “ANTIBODY OR PEPTIDE BINDING SPECIFICALLY TO RNASE A, IMMUNOASSAY DEVICE AND METHOD FOR DETECTING RNASE A, AND METHOD FOR COLLECTING RNASE A” (UIF (University Industry Foundation), Yonsei University, priority 2022, published 2026)
# Where no end group is shown, it is not given here.
# Biological target: T1, RNase A (Bos taurus, UniProt P61823)
# T1 sequence (P61823 27-150): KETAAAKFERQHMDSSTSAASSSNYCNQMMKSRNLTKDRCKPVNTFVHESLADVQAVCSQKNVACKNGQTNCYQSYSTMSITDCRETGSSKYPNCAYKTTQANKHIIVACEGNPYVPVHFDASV
# Test: SPR biosensor binding analysis with immobilized RNase A
# Design: Ribonuclease A (Type II-A) from bovine pancreas; purchased Sigma-Aldrich Korea; host or cells: bovine pancreas; species or system bovine
# Conditions: synthetic peptides, 0.37-10 μM; RNase A immobilized on Au chip; read-out: affinity constant (KD)
# Protocol: Binding analysis of the expressed FV antibody and synthesized peptides against RNase A was performed using an SPR (Surface Plasmon Resonance) biosensor from I-Cluebio (Seongnam, Korea). RNase A was immobilized on the gold surface of the SPR chip used in the SPR biosensor to conduct the binding analysis. For the manufacture of the SPR chip, a 2 nm thick titanium adhesive layer and a 48 nm thick gold surface were consecutively sputter-coated onto BK-7 glass (1×1 cm^2). […] To analyze the binding of the expressed Fv antibody to RNase A, Fv antibodies in the concentration range of 0.37-100 nM were reacted using PBS buffer as the […] through association (10 minutes), equilibrium (5 minutes), and dissociation (10 minutes) steps. The washing buffer and total SPR measurements were performed at a flow rate of 15 μL/min. For the binding analysis of the synthesized peptides against RNase A, peptides in the concentration range of 0.37-100 nM were reacted using PBS buffer as the washing buffer through association (10 minutes), equilibrium (5 minutes), and dissociation (10 minutes) steps, and total SPR measurements were conducted at a flow rate of 15 μL/min.
# Using the screened CDR3 amino acid sequences, the CDR3 regions of the screened Fv antibodies were synthesized as peptides, and the amino acid sequences were determined from the nucleotide sequences of the CDR3 regions as summarized in Table 2. These synthetic peptides (Peptide-1, Peptide-2, Peptide-3) and Fv antibodies (Fv-1, Fv-2, Fv-3) were identical to the amino acid sequences of the CDR3 regions of the screened clones. […] The SPR signal was plotted according to the concentration of the synthetic peptides, and the affinity constants (KD) of these synthetic peptides were calculated through a fitting process. […]
# Using the screened CDR3 amino acid sequences, the CDR3 regions of the screened Fv antibodies were synthesized as peptides, and the amino acid sequences were determined from the nucleotide sequences of the CDR3 regions as summarized in Table 7. […]
row,Kd,Sequence
1,1300 ± 100 nM,CGPDSDVMTDF [Peptide-1]
2,3700 ± 1100 nM,DGTAKKSRKDD [Peptide-3]

row,Sequence,Kd
1,YGPVGRVKRDD [Peptide-2],1300 ± 300 nM
